Test results reported in US20230234948A1, “CYCLOPROPYL DIHYDROQUINOLINE SULFONAMIDE COMPOUNDS” (AMGEN INC., priority 2020, published 2023).

The compounds below were run against T1, Human NaV1.7 (Homo sapiens, UniProt Q15858) (assay: Ionworks Barracuda (IWB) automated patch clamp assay). Settings: human NaV1.7 in HEK cells, population patch-clamp, state- and use-dependent voltage protocol; read-out: hNaV1.7 IWB-U IC50.
T1 construct: expressed in transfected cells; host or cells: Spiking HEK cells (without Kir2.1 transfection)
T1 sequence (Q15858 whole entry): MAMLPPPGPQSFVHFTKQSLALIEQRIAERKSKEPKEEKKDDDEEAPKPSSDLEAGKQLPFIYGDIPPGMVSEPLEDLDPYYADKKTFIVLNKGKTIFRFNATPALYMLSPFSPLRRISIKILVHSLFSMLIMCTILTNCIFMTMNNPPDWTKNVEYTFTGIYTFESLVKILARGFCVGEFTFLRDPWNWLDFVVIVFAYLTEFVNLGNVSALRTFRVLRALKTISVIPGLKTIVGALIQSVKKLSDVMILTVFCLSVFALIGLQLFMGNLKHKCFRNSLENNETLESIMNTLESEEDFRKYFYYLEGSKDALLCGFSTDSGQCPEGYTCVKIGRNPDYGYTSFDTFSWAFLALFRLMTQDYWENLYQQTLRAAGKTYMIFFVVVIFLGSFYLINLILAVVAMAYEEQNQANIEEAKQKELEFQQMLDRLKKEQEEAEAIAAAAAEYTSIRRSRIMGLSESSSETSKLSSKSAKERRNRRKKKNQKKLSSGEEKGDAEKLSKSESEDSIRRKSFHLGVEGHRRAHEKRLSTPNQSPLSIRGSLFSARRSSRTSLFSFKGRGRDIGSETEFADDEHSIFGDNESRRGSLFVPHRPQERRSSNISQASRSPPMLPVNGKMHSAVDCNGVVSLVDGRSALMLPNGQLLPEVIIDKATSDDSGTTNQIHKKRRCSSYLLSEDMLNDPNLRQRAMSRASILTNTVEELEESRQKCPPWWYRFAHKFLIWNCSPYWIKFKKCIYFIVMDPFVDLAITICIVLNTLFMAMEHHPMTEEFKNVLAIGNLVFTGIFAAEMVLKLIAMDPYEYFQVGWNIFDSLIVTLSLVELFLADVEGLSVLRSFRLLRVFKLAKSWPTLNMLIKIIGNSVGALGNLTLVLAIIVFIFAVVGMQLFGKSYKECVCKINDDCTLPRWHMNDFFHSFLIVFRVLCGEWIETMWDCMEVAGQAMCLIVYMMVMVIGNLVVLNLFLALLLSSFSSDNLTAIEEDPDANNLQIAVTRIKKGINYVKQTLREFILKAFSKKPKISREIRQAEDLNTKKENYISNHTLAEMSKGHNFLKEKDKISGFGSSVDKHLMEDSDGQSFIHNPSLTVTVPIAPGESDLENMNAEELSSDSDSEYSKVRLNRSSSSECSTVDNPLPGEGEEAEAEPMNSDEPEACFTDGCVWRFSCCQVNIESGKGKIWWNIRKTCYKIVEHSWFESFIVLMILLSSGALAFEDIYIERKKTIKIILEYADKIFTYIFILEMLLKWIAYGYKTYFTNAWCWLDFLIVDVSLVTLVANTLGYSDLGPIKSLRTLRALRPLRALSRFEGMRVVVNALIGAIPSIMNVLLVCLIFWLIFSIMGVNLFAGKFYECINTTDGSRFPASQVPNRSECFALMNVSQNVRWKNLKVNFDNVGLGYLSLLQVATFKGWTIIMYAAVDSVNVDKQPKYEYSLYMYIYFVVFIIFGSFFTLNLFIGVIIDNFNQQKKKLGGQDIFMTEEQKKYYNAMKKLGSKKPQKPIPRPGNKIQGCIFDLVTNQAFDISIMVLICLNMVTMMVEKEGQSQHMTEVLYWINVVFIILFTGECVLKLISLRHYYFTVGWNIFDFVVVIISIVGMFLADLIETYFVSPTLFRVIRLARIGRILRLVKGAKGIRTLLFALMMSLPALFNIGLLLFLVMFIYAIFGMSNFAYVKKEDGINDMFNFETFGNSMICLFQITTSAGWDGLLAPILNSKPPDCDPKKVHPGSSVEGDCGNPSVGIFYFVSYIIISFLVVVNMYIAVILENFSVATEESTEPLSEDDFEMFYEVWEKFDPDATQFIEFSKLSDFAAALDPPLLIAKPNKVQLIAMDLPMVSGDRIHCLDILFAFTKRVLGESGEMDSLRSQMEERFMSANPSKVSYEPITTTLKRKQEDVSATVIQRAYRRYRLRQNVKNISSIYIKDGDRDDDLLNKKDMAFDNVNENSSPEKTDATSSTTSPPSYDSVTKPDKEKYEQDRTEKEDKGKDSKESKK
Type: cell-based
Procedure: Ionworks Barracuda (IWB) Automated Patch Clamp Assay (Same Protocol for Both Human and Mouse)
Human NaV1.7 currents were recorded in population patch-clamp mode with the IWB automated electrophysiology system (Molecular Devices, LLC, Sunnyvale, Calif.). Spiking HEK cells (without Kir2.1 transfection) were cultured and prepared for recordings as previously described for IonWorks Quattro testing^1. The external solution consisted of the following (in mM): NaCl 140, KCl 5, CaCl2 2, MgCl2 1, HEPES 10, and glucose 11, pH 7.4, with N-methyl-D-glucamine at 320 mOsmol. […] From a holding potential of −110 mV, currents were elicited by a train of 26 depolarizations of 150 ms duration to −20 mV at a frequency of 5 Hz. Cells were then clamped to −20 mV for a period of 4 minutes in the presence of a single concentration of test compound. Following this compound incubation period, cells were clamped to −110 mV for three seconds to recover unbound channels and put through the same 26 pulse voltage protocol as above. Peak inward current during the 26th pulse to −20 mV in the presence of compound was divided by the peak inward current evoked by the 26th pulse to −20 mV in the absence of compound to determine percent inhibition. Concentration-response curves of percent inhibition as a function of concentration were generated to calculate IC50 values as described in Kornecook, T. J.; Yin, R.; Altmann, S.; et al. Pharmacologic Characterization of AMG8379, a Potent and Selective Small Molecule Sulfonamide Antagonist of the Voltage-Gated Sodium Channel NaV1. 7.
The potency of the compounds of the present invention were evaluated on human NaV1.7 channels using the above described IonWorks Barracuda automated electrophysiology platform that evaluates the ability of compounds to block sodium conductance through NaV1.7 channels. A voltage-protocol that prosecutes both state-dependent as well as use-dependent inhibition was used as these modes of action are thought to be more relevant for the native state of NaV1.7 channels in pain sensing neurons in vivo.

Q: `COc1cc([C@H]2C[C@@H]2C(F)(F)F)c(Cl)cc1-n1c(=O)ccc2cc(S(=O)(=O)Nc3cccnn3)ccc21` (single isomer, unassigned) [Example 15] was tested. Which IC50 did it give?
A: 14 nM

Q: Which IC50 does the source give for `COc1cc([C@H]2C[C@@H]2c2ccccc2)c(F)cc1-n1c(=O)ccc2cc(S(=O)(=O)Nc3ccon3)ccc21` (atropisomer, axis not shown; (P)) [Example 9, (P)-1-(5-fluoro-2-methoxy-4-((1S,2S)-2-phenylcyclopropyl)phenyl)-N-(isoxazol-3-yl)-2-oxo-1,2-dihydroquinoline-6-sulfonamide] here?
A: 4 nM

Q: For `COc1cc([C@H]2C[C@@H]2C(F)(F)F)c(C)cc1-n1c(=O)ccc2cc(S(=O)(=O)Nc3ccon3)ccc21` (single isomer, unassigned) [Example 27], which IC50 is on record?
A: 13 nM

Q: Which IC50 does the source give for `COc1cc([C@@H]2C[C@H]2C(F)(F)F)c(Cl)cc1-n1c(=O)ccc2cc(S(=O)(=O)Nc3ncccn3)ccc21` (atropisomer, axis not shown; (P)) [Example 13, (P)-1-(5-chloro-2-methoxy-4-((1R,2R)-2-(trifluoromethyl)cyclopropyl)phenyl)-2-oxo-N-(pyrimidin-2-yl)-1,2-dihydroquinoline-6-sulfonamide] here?
A: 12 nM

Q: With `COc1cc([C@@H]2C[C@H]2C(F)(F)F)c(C)cc1-n1c(=O)ccc2cc(S(=O)(=O)Nc3ncccn3)ccc21` (atropisomer, axis not shown; (P)) [Example 28, (P)-1-(2-methoxy-5-methyl-4-((1R,2R)-2-(trifluoromethyl)cyclopropyl)phenyl)-2-oxo-N-(pyrimidin-2-yl)-1,2-dihydroquinoline-6-sulfonamide] as the compound, how does the IC50 read?
A: 42 nM

Q: With `COc1cc([C@H]2C[C@@H]2C(F)(F)F)c(Cl)cc1-n1c(=O)ccc2cc(S(=O)(=O)Nc3ccon3)ccc21` (atropisomer, axis not shown; (P)) [Example 19, (P)-1-(5-chloro-2-methoxy-4-((1S,2S)-2-(trifluoromethyl)cyclopropyl)phenyl)-N-(isoxazol-3-yl)-2-oxo-1,2-dihydroquinoline-6-sulfonamide] as the compound, how does the IC50 read?
A: 6 nM

Q: With `COc1cc([C@H]2C[C@@H]2C(F)(F)F)c(F)cc1-n1c(=O)ccc2cc(S(=O)(=O)Nc3ncco3)ccc21` (atropisomer, axis not shown; (P)) [Example 36, (P)-1-(5-fluoro-2-methoxy-4-((1S,2S)-2-(trifluoromethyl)cyclopropyl)phenyl)-N-(oxazol-2-yl)-2-oxo-1,2-dihydroquinoline-6-sulfonamide] as the compound, how does the IC50 read?
A: 6 nM

Q: How did the IC50 turn out when `COc1cc([C@@H]2C[C@H]2c2ccccc2)c(F)cc1-n1c(=O)ccc2cc(S(=O)(=O)Nc3ccon3)ccc21` (atropisomer, axis not shown; (P)) [Example 8, (P)-1-(5-fluoro-2-methoxy-4-((1R,2R)-2-phenylcyclopropyl)phenyl)-N-(isoxazol-3-yl)-2-oxo-1,2-dihydroquinoline-6-sulfonamide] was run?
A: 8 nM

Q: `COc1cc(C2(C(F)(F)F)CC2)c(F)cc1-n1c(=O)ccc2cc(S(=O)(=O)Nc3ccon3)ccc21` (single isomer, unassigned) [Example 42, (P)-1-(5-fluoro-2-methoxy-4-(1-(trifluoromethyl)cyclopropyl)phenyl)-N-(isoxazol-3-yl)-2-oxo-1,2-dihydroquinoline-6-sulfonamide] was tested. Which IC50 did it give?
A: 20 nM

Q: How did the IC50 turn out when `COc1cc([C@@H]2C[C@H]2C(F)(F)F)c(F)cc1-n1c(=O)cc(F)c2cc(S(=O)(=O)Nc3ccon3)ccc21` (atropisomer, axis not shown; (P)) [Example 44, (P)-4-fluoro-1-(5-fluoro-2-methoxy-4-((1R,2R)-2-(trifluoromethyl)cyclopropyl)phenyl)-N-(isoxazol-3-yl)-2-oxo-1,2-dihydroquinoline-6-sulfonamide] was run?
A: 5 nM

Q: Which IC50 does the source give for `COc1cc([C@H]2C[C@@H]2C(F)(F)F)c(C)cc1-n1c(=O)ccc2cc(S(=O)(=O)Nc3ncccn3)ccc21` (atropisomer, axis not shown; (P)) [Example 29, (P)-1-(2-methoxy-5-methyl-4-((1S,2S)-2-(trifluoromethyl)cyclopropyl)phenyl)-2-oxo-N-(pyrimidin-2-yl)-1,2-dihydroquinoline-6-sulfonamide] here?
A: 32 nM

Q: With `COc1cc([C@@H]2C[C@H]2C(F)(F)F)c(F)cc1-n1c(=O)ccc2cc(S(=O)(=O)Nc3ncns3)ccc21` (atropisomer, axis not shown; (P)) [Example 34, (P)-1-(5-fluoro-2-methoxy-4-((1R,2R)-2-(trifluoromethyl)cyclopropyl)phenyl)-2-oxo-N-(1,2,4-thiadiazol-5-yl)-1,2-dihydroquinoline-6-sulfonamide] as the compound, how does the IC50 read?
A: 5 nM

Q: Which IC50 does the source give for `COc1cc([C@H]2C[C@@H]2C(F)(F)F)ccc1-n1c(=O)ccc2cc(S(=O)(=O)Nc3ccon3)c(F)cc21` (atropisomer, axis not shown; (P)) [Example 48, (P)-7-fluoro-N-(isoxazol-3-yl)-1-(2-methoxy-4-((1S,2S)-2-(trifluoromethyl)cyclopropyl)phenyl)-2-oxo-1,2-dihydroquinoline-6-sulfonamide] here?
A: 11 nM

Q: How did the IC50 turn out when `COc1cc([C@H]2C[C@@H]2C(F)(F)F)c(F)cc1-n1c(=O)ccc2cc(S(=O)(=O)Nc3cccnn3)ccc21` (atropisomer, axis not shown; (P)) [Example 17, (P)-1-(5-fluoro-2-methoxy-4-((1S,2S)-2-(trifluoromethyl)cyclopropyl)phenyl)-2-oxo-N-(pyridazin-3-yl)-1,2-dihydroquinoline-6-sulfonamide] was run?
A: 16 nM

Q: `COc1cc([C@@H]2C[C@H]2C(F)(F)F)c(F)cc1-n1c(=O)ccc2cc(S(=O)(=O)Nc3cccnn3)ccc21` (atropisomer, axis not shown; (P)) [Example 16, (P)-1-(5-fluoro-2-methoxy-4-((1R,2R)-2-(trifluoromethyl)cyclopropyl)phenyl)-2-oxo-N-(pyridazin-3-yl)-1,2-dihydroquinoline-6-sulfonamide] was tested. Which IC50 did it give?
A: 19 nM

Q: Which IC50 does the source give for `COc1cc([C@@H]2C[C@H]2C(F)(F)F)ccc1-n1c(=O)ccc2cc(S(=O)(=O)Nc3ccon3)c(F)cc21` (atropisomer, axis not shown; (P)) [Example 47, (P)-7-fluoro-N-(isoxazol-3-yl)-1-(2-methoxy-4-((1R,2R)-2-(trifluoromethyl)cyclopropyl)phenyl)-2-oxo-1,2-dihydroquinoline-6-sulfonamide] here?
A: 12 nM

Q: `COc1cc([C@H]2C[C@@H]2C)c(F)cc1-n1c(=O)ccc2cc(S(=O)(=O)Nc3ccon3)ccc21` (atropisomer, axis not shown; (P)) [Example 7, (P)-1-(5-fluoro-2-methoxy-4-((1S,2S)-2-methylcyclopropyl)phenyl)-N-(isoxazol-3-yl)-2-oxo-1,2-dihydroquinoline-6-sulfonamide] was tested. Which IC50 did it give?
A: 16 nM

Q: Which IC50 does the source give for `COc1cc(C2(C(F)(F)F)CC2)c(F)cc1-n1c(=O)ccc2cc(S(=O)(=O)Nc3ccon3)ccc21` (single isomer, unassigned) [Example 43, (M)-1-(5-fluoro-2-methoxy-4-(1-(trifluoromethyl)cyclopropyl)phenyl)-N-(isoxazol-3-yl)-2-oxo-1,2-dihydroquinoline-6-sulfonamide] here?
A: 1630 nM

Q: `COc1cc([C@@H]2C[C@H]2C(F)(F)F)c(F)cc1-n1c(=O)ccc2cc(S(=O)(=O)Nc3ccon3)ccc21` (atropisomer, axis not shown; (P)) [Example 5, (P)-1-(5-fluoro-2-methoxy-4-((1R,2R)-2-(trifluoromethyl)cyclopropyl)phenyl)-N-(isoxazol-3-yl)-2-oxo-1,2-dihydroquinoline-6-sulfonamide] was tested. Which IC50 did it give?
A: 9 nM

Q: Which IC50 does the source give for `COc1cc([C@@H]2C[C@H]2C(F)(F)F)c(F)cc1-n1c(=O)ccc2cc(S(=O)(=O)Nc3ccon3)ccc21` (racemic) [Example 3, trans-1-(5-fluoro-2-methoxy-4-(2-(trifluoromethyl)cyclopropyl)phenyl)-N-(isoxazol-3-yl)-2-oxo-1,2-dihydroquinoline-6-sulfonamide] here?
A: 23 nM

Q: `COc1cc(C2(C(F)(F)F)CC2)c(F)cc1-n1c(=O)ccc2cc(S(=O)(=O)Nc3ncccn3)ccc21` (atropisomer, axis not shown; (P)) [Example 23, (P)-1-(5-fluoro-2-methoxy-4-(1-(trifluoromethyl)cyclopropyl)phenyl)-2-oxo-N-(pyrimidin-2-yl)-1,2-dihydroquinoline-6-sulfonamide] was tested. Which IC50 did it give?
A: 16 nM

Q: `COc1cc([C@H]2CC2(F)F)c(F)cc1-n1c(=O)ccc2cc(S(=O)(=O)Nc3ccon3)ccc21` (atropisomer, axis not shown; (P)) [Example 10, (P)-(R)-1-(4-(2,2-difluorocyclopropyl)-5-fluoro-2-methoxyphenyl)-N-(isoxazol-3-yl)-2-oxo-1,2-dihydroquinoline-6-sulfonamide] was tested. Which IC50 did it give?
A: 66 nM
